In patent publication US20040063662A1, “Selenophene anti-tumor agents” (priority 1996, published 2004):

Experiments:
MCF7/ADR-RES = assay: NCI human tumor cell panel: MCF7/ADR-RES (Breast Cancer); type: cell-based; details: Breast Cancer; for GI50: read-out: Log10 GI50 (converted); for IC (TGI): read-out: Log10 TGI (converted)
SK-MEL-2 = assay: NCI human tumor cell panel: SK-MEL-2 (Melanoma); type: cell-based; details: SK-MEL-2, Melanoma; for GI50: read-out: Log10 GI50 (converted); for IC (TGI): read-out: Log10 TGI (converted)
[1] = test system: panel of sixty different human tumor cell lines; assay: NCI human tumor cell panel: whole panel (mean graph summary); details: Homo sapiens
SK-MEL-5 = assay: NCI human tumor cell panel: SK-MEL-5 (Melanoma); type: cell-based; details: SK-MEL-5, Melanoma; for GI50: read-out: Log10 GI50 (converted); for IC (TGI): read-out: Log10 TGI (converted)
UACC-257 = assay: NCI human tumor cell panel: UACC-257 (Melanoma); type: cell-based; details: UACC-257, Melanoma; for GI50: read-out: Log10 GI50 (converted); for IC (TGI): read-out: Log10 TGI (converted)
K-562 = assay: NCI human tumor cell panel: K-562 (Leukemia); type: cell-based; details: K562, K-562, Leukemia; for GI50: read-out: Log10 GI50 (converted); for IC (TGI): read-out: Log10 TGI (converted)
NCI-H322M = assay: cells; type: cell-based; details: Homo sapiens, Non-Small Cell Lung Cancer; for GI50: read-out: Log10 GI50 (converted); for IC (TGI): read-out: Log10 TGI (converted)
M14 = assay: NCI human tumor cell panel: M14 (Melanoma); type: cell-based; details: M14, Melanoma; for GI50: read-out: Log10 GI50 (converted); for IC (TGI): read-out: Log10 TGI (converted)
HL-60(TB) = assay: NCI human tumor cell panel: HL-60(TB) (Leukemia); type: cell-based; details: Leukemia, read-out: Log10 GI50 (converted)
SR = assay: NCI human tumor cell panel: SR (Leukemia); type: cell-based; details: Leukemia; for GI50: read-out: Log10 GI50 (converted); for IC (TGI): read-out: Log10 TGI (converted)
SK-MEL-28 = assay: NCI human tumor cell panel: SK-MEL-28 (Melanoma); type: cell-based; details: SK-MEL-28, Melanoma; for GI50: read-out: Log10 GI50 (converted); for IC (TGI): read-out: Log10 TGI (converted)
IGROV1 = assay: NCI human tumor cell panel: IGROV1 (Ovarian Cancer); type: cell-based; details: IGROV-1, IGROV1, Ovarian Cancer; for GI50: read-out: Log10 GI50 (converted); for IC (TGI): read-out: Log10 TGI (converted)
RXF-393 = assay: NCI human tumor cell panel: RXF-393 (Renal Cancer); type: cell-based; details: RXF-393, Renal Cancer; for GI50: read-out: Log10 GI50 (converted); for IC (TGI): read-out: Log10 TGI (converted)
SNB-75 = assay: NCI human tumor cell panel: SNB-75 (CNS Cancer); type: cell-based; details: SNB-75, CNS Cancer; for GI50: read-out: Log10 GI50 (converted); for IC (TGI): read-out: Log10 TGI (converted)
OVCAR-5 = assay: NCI human tumor cell panel: OVCAR-5 (Ovarian Cancer); type: cell-based; details: OVCAR-5, Ovarian Cancer; for GI50: read-out: Log10 GI50 (converted); for IC (TGI): read-out: Log10 TGI (converted)
SF-268 = assay: NCI human tumor cell panel: SF-268 (CNS Cancer); type: cell-based; details: SF-268, CNS Cancer; for GI50: read-out: Log10 GI50 (converted); for IC (TGI): read-out: Log10 TGI (converted)
CAKI-1 = assay: NCI human tumor cell panel: CAKI-1 (Renal Cancer); type: cell-based; details: CAKI-1, Renal Cancer; for GI50: read-out: Log10 GI50 (converted); for IC (TGI): read-out: Log10 TGI (converted)
MCF7 = assay: NCI human tumor cell panel: MCF7 (Breast Cancer); type: cell-based; details: MCF7, Breast Cancer; for GI50: read-out: Log10 GI50 (converted); for IC (TGI): read-out: Log10 TGI (converted)
T-47D = assay: NCI human tumor cell panel: T-47D (Breast Cancer); type: cell-based; details: T47D, Breast Cancer; for IC (TGI): read-out: Log10 TGI (converted)
MDA-MB-231/ATCC = assay: NCI human tumor cell panel: MDA-MB-231/ATCC (Breast Cancer); type: cell-based; details: Homo sapiens, MDA-MB-231, MDA-MB-231/ATCC, Breast Cancer; for GI50: read-out: Log10 GI50 (converted); for IC (TGI): read-out: Log10 TGI (converted)
MDA-MB-435 = assay: NCI human tumor cell panel: MDA-MB-435 (Breast Cancer); type: cell-based; details: MDA-MB-435, Breast Cancer; for GI50: read-out: Log10 GI50 (converted); for IC (TGI): read-out: Log10 TGI (converted)
TK-10 = assay: NCI human tumor cell panel: TK-10 (Renal Cancer); type: cell-based; details: TK-10, Renal Cancer; for GI50: read-out: Log10 GI50 (converted); for IC (TGI): read-out: Log10 TGI (converted)
HCC-2998 = assay: NCI human tumor cell panel: HCC-2998 (Colon Cancer); type: cell-based; details: HCC-2998, Colon Cancer; for IC (TGI): read-out: Log10 TGI (converted)
NCI-H226 = assay: NCI human tumor cell panel: NCI-H226 (Non-Small Cell Lung Cancer); type: cell-based; details: NCI-H226, Non-Small Cell Lung Cancer; for GI50: read-out: Log10 GI50 (converted); for IC (TGI): read-out: Log10 TGI (converted)
KM12 = assay: NCI human tumor cell panel: KM12 (Colon Cancer); type: cell-based; details: KM12, Colon Cancer; for GI50: read-out: Log10 GI50 (converted); for IC (TGI): read-out: Log10 TGI (converted)
COLO 205 = assay: NCI human tumor cell panel: COLO 205 (Colon Cancer); type: cell-based; details: COLO 205, Colon Cancer; for GI50: read-out: Log10 GI50 (converted); for IC (TGI): read-out: Log10 TGI (converted)
SK-OV-3 = assay: NCI human tumor cell panel: SK-OV-3 (Ovarian Cancer); type: cell-based; details: SK-OV-3, Ovarian Cancer; for GI50: read-out: Log10 GI50 (converted); for IC (TGI): read-out: Log10 TGI (converted)
NCI-H460 = assay: NCI human tumor cell panel: NCI-H460 (Non-Small Cell Lung Cancer); type: cell-based; details: NCI-H460, Non-Small Cell Lung Cancer; for GI50: read-out: Log10 GI50 (converted); for IC (TGI): read-out: Log10 TGI (converted)
A498 = assay: NCI human tumor cell panel: A498 (Renal Cancer); type: cell-based; details: A498, Renal Cancer
[2] = read-out: Log10 GI50 (converted)

O=Cc1ccc(-c2ccc(-c3ccc(C=O)[se]3)s2)[se]1 [NSC 676630]
GI50 (MCF7/ADR-RES): 79.4 µM
IC (TGI) (MCF7/ADR-RES): > 100 µM
GI50 (SK-MEL-2): > 100 µM
IC (TGI) (SK-MEL-2): > 100 µM
GI50 ([1]; read-out: Delta Log10 GI50, whole panel, line Delta (converted)): 26.3 µM
CC50 ([1]; read-out: Delta Log10 LC50, whole panel, line Delta (converted)): 85.1 µM
GI50 (SK-MEL-5): > 100 µM
IC (TGI) (SK-MEL-5): > 100 µM
GI50 (UACC-257): 0.275 µM
IC (TGI) (UACC-257): 0.676 µM
GI50 (K-562): 3.39 µM
IC (TGI) (K-562): > 100 µM
GI50 (NCI-H322M): > 100 µM
IC (TGI) (NCI-H322M): > 100 µM
GI50 (M14): > 100 µM
IC (TGI) (M14): > 100 µM
GI50 (HL-60(TB)): > 100 µM
GI50 (SR): > 100 µM
IC (TGI) (SR): > 100 µM
GI50 (SK-MEL-28): > 100 µM
IC (TGI) (SK-MEL-28): > 100 µM
GI50 (IGROV1): 1.48 µM
IC (TGI) (IGROV1): > 100 µM
GI50 (RXF-393): > 100 µM
IC (TGI) (RXF-393): > 100 µM
GI50 (SNB-75): 67.6 µM
IC (TGI) (SNB-75): > 100 µM
GI50 (OVCAR-5): 0.132 µM
IC (TGI) (OVCAR-5): 0.447 µM
GI50 (SF-268): > 100 µM
IC (TGI) (SF-268): > 100 µM
GI50 (CAKI-1): 0.741 µM
IC (TGI) (CAKI-1): 15.1 µM
GI50 (MCF7): 0.676 µM
IC (TGI) (MCF7): > 100 µM
IC (TGI) (T-47D): > 100 µM
GI50 (MDA-MB-231/ATCC): > 100 µM
IC (TGI) (MDA-MB-231/ATCC): > 100 µM
GI50 (MDA-MB-435): > 100 µM
IC (TGI) (MDA-MB-435): > 100 µM
GI50 (TK-10): 0.38 µM
IC (TGI) (TK-10): 1.62 µM
IC (TGI) (HCC-2998): 85.1 µM
GI50 (NCI-H226): 0.191 µM
IC (TGI) (NCI-H226): 0.49 µM
GI50 (KM12): > 100 µM
IC (TGI) (KM12): > 100 µM
GI50 (COLO 205): 93.3 µM
IC (TGI) (COLO 205): > 100 µM
GI50 (SK-OV-3): > 100 µM
IC (TGI) (SK-OV-3): > 100 µM
GI50 (NCI-H460): 0.129 µM
IC (TGI) (NCI-H460): > 100 µM

O=Cc1ccc(-c2ccc(-c3ccc(C=O)s3)[se]2)s1 [NSC 675345]
GI50 (MCF7/ADR-RES): > 100 µM
IC (TGI) (MCF7/ADR-RES): > 100 µM
GI50 (SK-MEL-2): 77.6 µM
IC (TGI) (SK-MEL-2): > 100 µM
GI50 (SK-MEL-5): > 100 µM
IC (TGI) (SK-MEL-5): > 100 µM
GI50 (UACC-257): 1.38 µM
IC (TGI) (UACC-257): > 100 µM
GI50 (K-562): 30.9 µM
IC (TGI) (K-562): > 100 µM
GI50 (NCI-H322M): > 100 µM
IC (TGI) (NCI-H322M): > 100 µM
GI50 (A498; [2]): 0.479 µM
IC (TGI) (A498; read-out: Log10 TGI (converted)): 1.55 µM
GI50 (M14): > 100 µM
IC (TGI) (M14): > 100 µM
GI50 (HL-60(TB)): > 100 µM
GI50 (SR): > 100 µM
IC (TGI) (SR): > 100 µM
GI50 (SK-MEL-28): > 100 µM
IC (TGI) (SK-MEL-28): > 100 µM
GI50 (IGROV1): 4.37 µM
IC (TGI) (IGROV1): 22.9 µM
GI50 (RXF-393): > 100 µM
IC (TGI) (RXF-393): > 100 µM
GI50 (SNB-75): 52.5 µM
IC (TGI) (SNB-75): > 100 µM
GI50 (OVCAR-5): 1.55 µM
IC (TGI) (OVCAR-5): 5.37 µM
GI50 (SF-268): > 100 µM
IC (TGI) (SF-268): > 100 µM
GI50 (CAKI-1): 32.4 µM
IC (TGI) (CAKI-1): > 100 µM
GI50 (MCF7): 0.724 µM
IC (TGI) (MCF7): 5.62 µM
GI50 (T-47D; [2]): 79.4 µM
IC (TGI) (T-47D): > 100 µM
GI50 (MDA-MB-231/ATCC): 18.2 µM
IC (TGI) (MDA-MB-231/ATCC): > 100 µM
GI50 (MDA-MB-435): 58.9 µM
IC (TGI) (MDA-MB-435): > 100 µM
GI50 (TK-10): > 100 µM
IC (TGI) (TK-10): > 100 µM
GI50 (HCC-2998; [2]): 2.34 µM
IC (TGI) (HCC-2998): 6.92 µM
GI50 (NCI-H226): 0.575 µM
IC (TGI) (NCI-H226): 2.45 µM
GI50 (KM12): > 100 µM
IC (TGI) (KM12): > 100 µM
GI50 (COLO 205): 33.9 µM
IC (TGI) (COLO 205): > 100 µM
GI50 (SK-OV-3): 55 µM
IC (TGI) (SK-OV-3): > 100 µM
GI50 (NCI-H460): 0.813 µM
IC (TGI) (NCI-H460): > 100 µM
